# Results taken from article PMC12491243, “Rational design of indoleamine 2,3-dioxygenase 1 (IDO1) inhibitors featuring 1,2,3-triazole derivatives with enhanced anti-inflammatory and analgesic efficacy” (Frontiers in Pharmacology, 2025).
# System: TNF-α
# Assay: ELISA of TNF-α in inflamed paw, spinal cord and serum of CFA mice
# Assay type: in vivo
# Settings: ipsilateral L4–L6 spinal cord and serum, 72 h after CFA
# From the text: To determine whether the analgesic effects of Compound 14e are associated with reduced local and systemic inflammation, we measured the levels of inflammatory factors in the inflamed paw tissue, ipsilateral L4–L6 spinal cord, and peripheral blood. The results indicated a significant increase in the protein levels of TNF-α and IL-1β in the inflamed paw, spinal cord, and serum of mice in the CFA group compared to the vehicle group.
# FIGURE 6 Compound 14e reduces TNF-α and IL-1β in the inflamed hindpaw skin, spinal cord and peripheral blood 72 h after CFA-induced inflammation. (A,D) Expression levels of TNF-α and IL-1β in the inflamed skin tissue. (B,E) Expression levels of TNF-α and IL-1β in ipsilateral L4–6 spinal cord. […]
# Under anesthesia with 1% pentobarbital sodium, serum was obtained from the mice orbits, after coagulation at room temperature for 2 h, the sample was then centrifuged at 1,000 × g for 20 min at 4 °C, with the supernatant collected. […] The protein concentrations were determined using a bicinchoninic acid (BCA) kit (Pierce Biotechnology Inc.). The following inflammatory factors were measured using Mouse TNF-α ELISA kit (EM0183) and IL-1β ELISA kit (EM0109) obtained from Wuhan Fine Biotechnology Company, according to the product protocols. The O.D. absorbance at 450 nm was quantified in a ultramicroplate spectrophotometer (BioTek Epoch).
smiles,measurement,value
O=C1COc2ccc(NC(=O)c3cccc(-c4cn(Cc5c(F)cccc5Cl)nn4)c3)cc2N1 [Compound 14e],CFA-induced levels of TNF-α,significantly decreased
